Calls of active or inactive are those of the source. The calls are words filed in the database; no cut-off is given here.
Tests used:
[1] = molecular target: T1, Prostaglandin G/H synthase 1 (Ovis aries, UniProt P05979); assay: Inhibition of cyclooxygenase activity of COX1 in sheep seminal vesicle in presence of 1 mM phenol by cyclooxygenase assay; format: tissue-based
T1 sequence (P05979 whole entry): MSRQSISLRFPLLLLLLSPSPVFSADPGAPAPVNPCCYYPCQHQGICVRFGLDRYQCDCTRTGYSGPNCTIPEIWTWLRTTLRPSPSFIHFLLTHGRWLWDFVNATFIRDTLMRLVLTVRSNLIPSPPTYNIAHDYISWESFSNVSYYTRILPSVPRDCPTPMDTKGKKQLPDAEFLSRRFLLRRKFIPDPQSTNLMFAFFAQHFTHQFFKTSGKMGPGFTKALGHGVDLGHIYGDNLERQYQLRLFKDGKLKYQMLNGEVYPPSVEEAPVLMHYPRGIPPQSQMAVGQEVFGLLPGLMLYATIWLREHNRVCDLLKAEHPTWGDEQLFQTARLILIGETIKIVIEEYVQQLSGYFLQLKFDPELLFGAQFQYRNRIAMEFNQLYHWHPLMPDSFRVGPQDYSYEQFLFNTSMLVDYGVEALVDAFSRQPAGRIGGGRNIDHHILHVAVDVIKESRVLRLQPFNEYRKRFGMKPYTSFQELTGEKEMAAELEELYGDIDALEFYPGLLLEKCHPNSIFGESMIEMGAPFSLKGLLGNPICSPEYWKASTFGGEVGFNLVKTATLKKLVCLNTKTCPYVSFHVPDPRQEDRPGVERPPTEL

[2] = molecular target: T2, Prostaglandin G/H synthase 1 (Ovis aries) (UniProt P05979); assay: Inactivation of holo-COX1 in sheep seminal vesicle assessed as drug oxidization at 2.5 to 4 nmol by RP-HPLC in presence of hydrogen peroxide
T2 sequence (whole entry): T1 sequence (P05979 whole entry)

[3] = molecular target: T2, Prostaglandin G/H synthase 1 (Ovis aries); assay: Effect on COX1 activity in sheep seminal vesicle at 5 uM by TMPD peroxidase assay; format: tissue-based
[4] = molecular target: T1, Prostaglandin G/H synthase 1; assay: Inhibition of peroxidase activity of COX1 in heep seminal vesicle by TMPD assay; format: tissue-based
[5] = molecular target: T1, Prostaglandin G/H synthase 1; assay: Binding affinity to COX1 in sheep seminal vesicle
[6] = molecular target: T3, Prostaglandin G/H synthase 2 (Homo sapiens) (UniProt P35354); assay: Inhibition of human COX2 expressed in baculovirus infected Sf-21 insect cells
T3 sequence (whole entry): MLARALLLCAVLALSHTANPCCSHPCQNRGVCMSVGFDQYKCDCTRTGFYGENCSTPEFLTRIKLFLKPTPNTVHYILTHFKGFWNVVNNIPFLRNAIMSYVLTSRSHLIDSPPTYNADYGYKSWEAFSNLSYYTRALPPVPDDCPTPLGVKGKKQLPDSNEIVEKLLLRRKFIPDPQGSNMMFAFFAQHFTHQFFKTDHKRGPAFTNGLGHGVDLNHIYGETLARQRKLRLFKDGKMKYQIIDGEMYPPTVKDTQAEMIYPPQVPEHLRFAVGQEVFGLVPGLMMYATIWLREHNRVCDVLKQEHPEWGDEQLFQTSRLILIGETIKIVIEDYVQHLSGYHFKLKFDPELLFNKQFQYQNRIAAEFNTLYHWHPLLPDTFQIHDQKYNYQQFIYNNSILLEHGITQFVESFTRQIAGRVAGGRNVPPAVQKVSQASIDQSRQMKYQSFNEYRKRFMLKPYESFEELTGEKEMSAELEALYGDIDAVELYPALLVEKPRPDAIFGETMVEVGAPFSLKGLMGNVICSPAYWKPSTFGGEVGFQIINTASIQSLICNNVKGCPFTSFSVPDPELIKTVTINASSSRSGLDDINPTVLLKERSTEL

| Compound | IC50 [1] [µM] | Activity [2] [%] | Activity [3] | IC50 [4] [µM] | Kd [5] [µM] | Activity [6] |
| --- | --- | --- | --- | --- | --- | --- |
| Oc1cccc(O)c1 [RESORCINOL] | 30.8 | 5 | inactive | 3.6 | 86.9 | – |
| Oc1ccc(/C=C/c2cc(O)cc(O)c2)cc1 [RESVERATROL] | 67.3 | – | inactive | 2.8 | 11.7 | – |
| Oc1cc(O)c2c(c1)O[C@@H](c1ccc(O)c(O)c1)[C@H](O)C2 [(-)-CATECHIN] | 30.8 | 8 | inactive | 5.3 | 48.7 | inactive |
| Oc1cc(O)c2c(c1)O[C@H](c1ccc(O)c(O)c1)[C@@H](O)C2 [CIANIDANOL] | 20.2 | 7 | inactive | 4.1 | 40.7 | inactive |

Stronger by IC50 [1], values ahead:

| IC50 [1] [µM] | Activity [2] [%] | Activity [3] | IC50 [4] [µM] | Kd [5] [µM] | Activity [6] | Compound |
| --- | --- | --- | --- | --- | --- | --- |
| 12.8 | 5 | inactive | 2.5 | 25.1 | inactive | Oc1cc(O)c2c(c1)O[C@@H](c1ccc(O)c(O)c1)[C@@H](O)C2 [(+)-EPICATECHIN] |
| 12.2 | 5 | inactive | 2 | 25.9 | inactive | Oc1cc(O)c2c(c1)O[C@H](c1ccc(O)c(O)c1)[C@H](O)C2 [(-)-EPICATECHIN] |

— ChEMBL document CHEMBL1148935, “Mechanism-based inactivation of COX-1 by red wine m-hydroquinones: a structure-activity relationship study” (J Nat Prod, 2004)
